# Patent publication US20070225278A1, “Methods for treating cognitive and other disorders” (priority 2006, published 2007)
# Experiments:
# [1] = system: male Sprague Dawley CD rats; assay: Reversal of d-amphetamine induced deficits in pre-pulse inhibition (PPI); conditions: 3-17 mg/kg IP, d-amphetamine 4 mg/kg SC
# [2] = system: male Sprague Dawley CD rats; assay: Reversal of DOI induced deficits in PPI; conditions: significant at 17 mg/kg IP (3-30 mg/kg tested); DOI 3 mg/kg IP
# [3] = system: male Sprague Dawley CD rats; assay: Baseline PPI, compound administered alone; format: in vivo, rat; conditions: dose range that attenuates d-amphetamine and DOI deficits
# Description: Inter-trial intervals averaged 15 s.
# [4] = system: extracellular glutamate levels in the rat mPFC; assay: In vivo microdialysis, glutamate in medial prefrontal cortex; conditions: 17 mg/kg s.c., acute
# Description: Animals: Adult male Sprague-Dawley rats (Charles River, Wilmington, Mass.) weighing 280-350 g at the time of surgery were used for all microdialysis experiments. Adult male Long-Evans rats (Charles River, Wilmington, Mass.) weighing 180-220 g were used for NOR studies. Rats were housed individually for recognition memory studies. All animals had free access to food and water and were group housed in the AAALAC-accredited facility that was maintained on a 12 h light dark cycle (lights on at 0600 h) for at least 1 week prior to surgery or behavioral testing. All in vivo studies were performed in accordance to the ‘Guide for the Care and Use of Laboratory Animals’ as adopted and promulgated by the National Institutes of Health (Pub. 85-23, 1985).
# Stereotaxic Surgery Following induction of anesthesia with 3% halothane (Fluothane; Zeneca, Cheshire, UK), animals were secured in a stereotaxic frame with ear and incisor bars (David Kopf, Tujunga, Calif.). Anesthesia was maintained by continuous administration of halothane (1-2%) while a microdialysis guide cannula (CMA/12, CMA Microdialysis, Stockholm, Sweden) was implanted above the medial prefrontal cortex (AP: 3.2 mm ML: −0.6 mm DV: −3.8 mm). […]
# Dialysate (10 μL) f was collected and analyzed for extracellular glutamate concentrations. […]
structure (smiles),measurement,setting,value
c1cc2c3c(c1)[C@H]1CCC[C@H]1N3CCNC2 [Compound 1],attenuation of amphetamine induced deficit in PPI,[1]; all doses tested,significantly attenuated
same,effect on startle alone responding,[1],without having a significant effect
same,attenuation of DOI induced disruption in gating (PPI),[2],significantly attenuated
same,effect on baseline PPI when administered alone,[3],no effect
same,glutamate levels compared to vehicle-treated animals,[4],210%
